Molecules are shown by their SMILES.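 Interpolation was linear, between the two tested concentrations surrounding the appropriate level; five concentrations were tested over 48 hours in 96-well plates. Here, GI50 denotes the concentration required for 50% inhibition of growth. At the TGI there is no net growth.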

Among the test systems are HOP-62 NSCLC; UACC-257 melanoma; CCRF-CEM leukemia; UO-31 renal; SF-295 CNS; OVCAR-3 ovarian; U251 CNS; SNB-19 CNS; NCI-H460 lung; UACC-62 melanoma.
Assay in all cases: NCI tumour cell line growth inhibition, 48 h

As for `CCOC(=O)NC(=O)c1cn(CCN2CCN(C(=O)CCCCCCCCCCC(=O)N3CCN(CCn4cc(C(=O)NC(=O)OCC)c(=O)[nH]c4=O)CC3)CC2)c(=O)[nH]c1=O`, the TGI in the test with HOP-62 NSCLC, with UACC-257 melanoma, in the test on CCRF-CEM leukemia, in the test on UO-31 renal, with SF-295 CNS and in the test with OVCAR-3 ovarian was over 100 µM throughout. For the same compound, the TGI with U251 CNS and with SNB-19 CNS was over 100 µM in each case.

`O=c1cc(/C=C/c2ccccc2)[nH]c2cc3c(cc12)OCO3`: the TGI in the test with HOP-62 NSCLC turned out to be 14.5 µM; with UACC-257 melanoma, 97.7 µM; in the test on UO-31 renal it was 20.9 µM; in the test on SF-295 CNS it was 13.7 µM; in the test on OVCAR-3 ovarian, 5.82 µM; with NCI-H460 lung it was 10.6 µM. For the same compound, the values for the TGI in the test on U251 CNS, in the test with SNB-19 CNS and with UACC-62 melanoma were 7.18 µM, 13.4 µM and 10.1 µM, respectively. Moreover, the GI50 in the test with SF-295 CNS is 3 µM; in the test with OVCAR-3 ovarian, 2.22 µM.

Turning to `CCCCCCCCCCCCCCCC[N+]1(C)CCOCC1`, the GI50 is 1.34 µM in the test with HOP-62 NSCLC; 4 µM with UACC-257 melanoma; 1.09 µM in the test on CCRF-CEM leukemia; 13.4 µM with UO-31 renal; 1.8 µM with SF-295 CNS; 1.56 µM in the test on OVCAR-3 ovarian. The GI50 in the test with NCI-H460 lung is 1.96 µM; with U251 CNS, 1.06 µM; in the test on UACC-62 melanoma, 1.61 µM. The TGI in the test on HOP-62 NSCLC was 3.15 µM; with UACC-257 melanoma, 17.2 µM; in the test with CCRF-CEM leukemia it was 3.02 µM; with UO-31 renal it was 31.6 µM; in the test with SF-295 CNS it was 6.29 µM; in the test on OVCAR-3 ovarian it was 3.61 µM. Besides, the TGI with NCI-H460 lung was determined as 4.73 µM; in the test with U251 CNS, 2.34 µM; in the test on UACC-62 melanoma it was 3.83 µM.

On to `COc1ccc(C(=O)c2ccc([As]=O)cc2)cc1` (stereo unspecified), for which the GI50 is 0.0412 µM with HOP-62 NSCLC; 0.0296 µM with CCRF-CEM leukemia; 0.0696 µM in the test on UO-31 renal; 0.146 µM in the test with SF-295 CNS; 0.0345 µM with OVCAR-3 ovarian; 0.172 µM with NCI-H460 lung. The GI50 was 0.0218 µM in the test with U251 CNS and 0.0932 µM in the test on SNB-19 CNS. The TGI was found to be 0.183 µM in the test on HOP-62 NSCLC; 0.171 µM with CCRF-CEM leukemia; 0.204 µM in the test on UO-31 renal; 0.285 µM in the test with SF-295 CNS; 0.114 µM in the test on OVCAR-3 ovarian; 0.416 µM in the test with NCI-H460 lung. Moreover, the TGI amounted to 0.0615 µM with U251 CNS and 0.236 µM in the test with SNB-19 CNS.

Consider `N/N=C1\C(=O)N(CCc2ccccc2)C(=O)C1C(=O)NCCc1ccccc1` (stereo unspecified), for which the TGI in the test with UACC-257 melanoma, in the test on CCRF-CEM leukemia, in the test with UO-31 renal, in the test with SF-295 CNS, in the test with OVCAR-3 ovarian and in the test with U251 CNS was over 100 µM throughout. The TGI with SNB-19 CNS and with UACC-62 melanoma was over 100 µM in each case.

With `CSC(=S)N/N=C/c1nccc2ccccc12`, the TGI came to 10.1 µM with HOP-62 NSCLC; 15.5 µM in the test with UACC-257 melanoma; 8.8 µM in the test with CCRF-CEM leukemia; 9.4 µM in the test on UO-31 renal; 8.54 µM with SF-295 CNS; 6.12 µM with NCI-H460 lung. Also, the TGI with U251 CNS was 6.99 µM; in the test on SNB-19 CNS, over 27.1 µM; in the test with UACC-62 melanoma, 6.08 µM.

In the case of `N#Cc1ccc(NC(=O)C(CC(=O)OCc2ccccc2)NC(=O)OCc2ccccc2)cc1` (stereo unspecified), the GI50 in the test with UACC-257 melanoma, in the test on CCRF-CEM leukemia, with UO-31 renal, in the test with SF-295 CNS, in the test on NCI-H460 lung and in the test with U251 CNS was over 100 µM each time. Moreover, the GI50 with SNB-19 CNS and in the test with UACC-62 melanoma was over 100 µM each time. Also, the TGI in the test on UACC-257 melanoma, in the test with CCRF-CEM leukemia, with UO-31 renal, in the test on SF-295 CNS, in the test on NCI-H460 lung and in the test on U251 CNS was over 100 µM throughout. In addition, the TGI in the test on SNB-19 CNS and in the test with UACC-62 melanoma was over 100 µM throughout.

On to `O=S(=O)(NCCCNc1nccc(-c2c(-c3ccc(F)cc3)nc3sccn23)n1)c1ccc2ccccc2c1`, for which the GI50 with HOP-62 NSCLC was over 100 µM; in the test on UACC-257 melanoma, over 100 µM; with CCRF-CEM leukemia it was 3.13 µM; in the test on UO-31 renal it was 3.58 µM; in the test on SF-295 CNS, 6.86 µM; in the test with NCI-H460 lung it was 3.74 µM. The GI50 in the test with U251 CNS is 4.87 µM; in the test on SNB-19 CNS, 8.53 µM; with UACC-62 melanoma, 4.6 µM. For the same compound, the TGI in the test on HOP-62 NSCLC, with UACC-257 melanoma, with CCRF-CEM leukemia, in the test on UO-31 renal, in the test on SF-295 CNS and in the test with NCI-H460 lung was over 100 µM each time. Moreover, the TGI with U251 CNS, with SNB-19 CNS and with UACC-62 melanoma was over 100 µM each time.

As for `O=C(O)[C@H](c1ccccc1)[C@@H](C(=O)O)c1ccccc1`, the TGI in the test with HOP-62 NSCLC, in the test on UACC-257 melanoma, in the test on UO-31 renal, in the test on SF-295 CNS, in the test on OVCAR-3 ovarian and in the test with NCI-H460 lung was over 100 µM in each case. Also, the TGI in the test on U251 CNS, with SNB-19 CNS and in the test on UACC-62 melanoma was over 100 µM throughout.

In the case of `CCCCn1c(-c2ccc(C(=O)O/N=C(\N)c3ccc4c(c3)OCO4)cc2)nc(-c2ccccc2)c1-c1ccccc1`, the GI50 is 1.82 µM in the test with HOP-62 NSCLC; 6.43 µM with UACC-257 melanoma; 1.05 µM in the test with CCRF-CEM leukemia; 0.229 µM with UO-31 renal; 2.03 µM in the test on SF-295 CNS; 2.29 µM in the test on NCI-H460 lung. Moreover, the GI50 with U251 CNS is 2 µM; with SNB-19 CNS, 3.04 µM; with UACC-62 melanoma, 2.72 µM. The TGI in the test on HOP-62 NSCLC is 4.03 µM; in the test on UACC-257 melanoma, over 100 µM; with CCRF-CEM leukemia, 3.4 µM; in the test on UO-31 renal it was 0.562 µM; in the test on SF-295 CNS, 4.38 µM; in the test on NCI-H460 lung, 5.62 µM. For the same compound, the TGI in the test on U251 CNS was 5.24 µM; in the test on SNB-19 CNS it was 43.6 µM; in the test with UACC-62 melanoma it was 8.93 µM.

(Values after PubChem BioAssay (NCI).)
